Columns and labels:
MERTK = target: T1, MERTK (Homo sapiens, UniProt Q12866); assay: TR-FRET kinase activity assay, MERTK; assay type: biochemical; conditions: for IC50: TR-FRET activity assay, ATP at Km, 60 minutes, read-out: Mer IC50; for Mer/Flt3 ratio (FLT3 IC50/Mer IC50): ratio calculated as FLT3 IC50/Mer IC50
T1 sequence (Q12866 21-999): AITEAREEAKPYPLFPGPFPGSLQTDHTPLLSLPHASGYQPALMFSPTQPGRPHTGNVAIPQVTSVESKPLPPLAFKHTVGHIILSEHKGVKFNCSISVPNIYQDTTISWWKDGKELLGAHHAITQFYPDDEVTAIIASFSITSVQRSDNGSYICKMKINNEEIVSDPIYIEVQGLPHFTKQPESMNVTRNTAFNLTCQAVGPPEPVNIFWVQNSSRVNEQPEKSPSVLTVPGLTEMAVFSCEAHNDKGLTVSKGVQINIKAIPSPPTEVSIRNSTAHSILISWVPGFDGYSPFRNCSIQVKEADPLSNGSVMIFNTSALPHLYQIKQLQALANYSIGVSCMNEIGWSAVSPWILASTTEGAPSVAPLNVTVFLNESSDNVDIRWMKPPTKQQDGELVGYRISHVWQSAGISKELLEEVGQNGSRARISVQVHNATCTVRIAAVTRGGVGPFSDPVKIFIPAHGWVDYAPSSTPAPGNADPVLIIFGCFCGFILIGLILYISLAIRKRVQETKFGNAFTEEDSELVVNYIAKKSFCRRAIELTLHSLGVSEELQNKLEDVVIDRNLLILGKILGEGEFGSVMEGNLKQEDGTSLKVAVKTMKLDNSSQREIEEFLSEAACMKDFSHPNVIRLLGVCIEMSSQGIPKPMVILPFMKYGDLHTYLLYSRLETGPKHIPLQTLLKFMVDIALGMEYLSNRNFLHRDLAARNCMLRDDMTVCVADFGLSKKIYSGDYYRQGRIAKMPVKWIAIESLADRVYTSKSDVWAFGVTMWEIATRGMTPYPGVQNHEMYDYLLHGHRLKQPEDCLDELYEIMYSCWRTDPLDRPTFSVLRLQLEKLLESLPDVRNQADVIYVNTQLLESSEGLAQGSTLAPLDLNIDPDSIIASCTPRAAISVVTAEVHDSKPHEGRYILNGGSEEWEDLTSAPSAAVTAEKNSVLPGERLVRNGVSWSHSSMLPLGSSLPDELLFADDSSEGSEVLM
Description: (§1) IC50 values for compound inhibition of AXL, FLT3, MERTK and TYRO3 activity were determined using a TR-FRET activity assay. A peptide substrate with a fluorescent label is phosphorylated on a tyrosine by each enzyme, where the now phosphorylated product is bound by a Europium-labeled antibody specific to that phosphorylation site. The proximity between the antibody and the substrate gives a signal known as TR-FRET. As the enzyme is inhibited by compound, less phosphorylated peptide product is made, causing a decrease in overall signal.
(§2) Activity assays were performed in a 384-well, small volume, black microplates in an active enzyme volume of 10 uL and final developed volume of 20 uL. Final assay conditions are 50 mM HEPES pH 7.5, 10 mM MgCl2, 1 mM EGTA, 0.01% Brij 35 and 1 mM DTT, all at RT. Enzyme, substrate-labeled peptide and compound are mixed, and then the reaction is initiated with the addition of ATP at Km concentration for each enzyme. The reaction is allowed to run 60 minutes and then quenched with a 12.5 mM EDTA (ethylenediamine tetraacetic acid) solution. The plate is then developed with the addition of Europium-labeled antibody for a final volume of 20 uL and is then incubated for 30 minutes in darkness. Plates are read in a PHERASTAR® plate reader. Data are analyzed in GraphPad PRISM.

AXL = target: T2, AXL (Homo sapiens, UniProt P30530); assay: TR-FRET kinase activity assay, AXL; assay type: biochemical; conditions: ATP at Km, 60 minutes
T2 sequence (P30530 26-894): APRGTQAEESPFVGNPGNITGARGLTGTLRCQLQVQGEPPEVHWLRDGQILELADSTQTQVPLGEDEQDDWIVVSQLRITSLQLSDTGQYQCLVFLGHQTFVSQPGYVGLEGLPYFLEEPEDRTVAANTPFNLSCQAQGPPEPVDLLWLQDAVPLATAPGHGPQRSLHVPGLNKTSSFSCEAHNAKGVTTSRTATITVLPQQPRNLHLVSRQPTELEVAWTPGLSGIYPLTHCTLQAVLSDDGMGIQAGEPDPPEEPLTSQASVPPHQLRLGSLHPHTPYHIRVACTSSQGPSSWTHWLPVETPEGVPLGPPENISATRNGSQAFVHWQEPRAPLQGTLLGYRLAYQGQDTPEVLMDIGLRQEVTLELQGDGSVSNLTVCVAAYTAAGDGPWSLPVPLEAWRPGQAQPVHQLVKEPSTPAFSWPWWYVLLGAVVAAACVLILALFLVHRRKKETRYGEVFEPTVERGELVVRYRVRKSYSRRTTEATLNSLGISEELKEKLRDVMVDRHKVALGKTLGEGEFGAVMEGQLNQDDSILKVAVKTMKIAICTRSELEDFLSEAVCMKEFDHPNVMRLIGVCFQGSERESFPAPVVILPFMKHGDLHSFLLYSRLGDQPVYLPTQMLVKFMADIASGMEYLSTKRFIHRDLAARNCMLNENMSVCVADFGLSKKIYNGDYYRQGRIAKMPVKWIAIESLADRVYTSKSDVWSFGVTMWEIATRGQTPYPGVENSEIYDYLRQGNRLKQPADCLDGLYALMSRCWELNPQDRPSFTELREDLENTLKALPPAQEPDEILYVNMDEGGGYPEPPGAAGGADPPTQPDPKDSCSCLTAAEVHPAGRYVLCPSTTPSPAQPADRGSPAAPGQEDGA
Description: as §1, §2

Structure (SMILES) | IC50 (MERTK) | Mer/Flt3 ratio (FLT3 IC50/Mer IC50) (MERTK) | IC50 (AXL)
O[C@H]1CC[C@H](c2cnc(OC3CCNCC3)c3cnc(N[C@H]4CCCOC4)nc32)CC1 [Compound 216] | 100 to 1000 nM | ++ (a ratio of between 10 and 100) | 1000 to 10000 nM
CC[C@H](C)Nc1ncc2c(NC3CCOCC3)ncc([C@H]3CC[C@H](O)CC3)c2n1 [Compound 217] | ≤ 100 nM | +++ (a ratio of >100) | 1000 to 10000 nM
C[C@@H](Nc1ncc2c(OC3CCNCC3)ncc([C@H]3CC[C@H](O)CC3)c2n1)c1ccccc1 [Compound 218] | 100 to 1000 nM | + (a ratio of >2.0 and <10) | 1000 to 10000 nM
CC[C@H](C)Nc1ncc2c(NC3CCN(C)CC3)ncc([C@H]3CC[C@H](O)CC3)c2n1 [Compound 220] | ≤ 100 nM | +++ (a ratio of >100) | ≤ 100 nM
CC[C@H](C)Nc1ncc2c(OC3CCN(C)CC3)ncc([C@H]3CC[C@H](O)CC3)c2n1 [Compound 221] | ≤ 100 nM | +++ (a ratio of >100) | 100 to 1000 nM
CC[C@H](C)Nc1ncc2c(N3CC[C@@H](N(C)C)C3)ncc([C@H]3CC[C@H](O)CC3)c2n1 [Compound 222] | ≤ 100 nM | ++ (a ratio of between 10 and 100) | 100 to 1000 nM
CC[C@H](C)Nc1ncc2c(OC3C[C@H]4CC[C@@H](C3)O4)ncc([C@H]3CC[C@H](O)CC3)c2n1 (stereo partly drawn) [Compound 223] | ≤ 100 nM | ++ (a ratio of between 10 and 100) | 100 to 1000 nM
O[C@H]1CC[C@H](c2cnc(OC3CCNCC3)c3cnc(NCCC(F)(F)F)nc32)CC1 [Compound 224] | ≤ 100 nM | ++ (a ratio of between 10 and 100) | ≤ 100 nM
CC[C@H](C)Nc1ncc2c(=O)n(C3CCOCC3)cc([C@H]3CC[C@H](O)CC3)c2n1 [Compound 225] | ≤ 100 nM | ++ (a ratio of between 10 and 100) | 100 to 1000 nM
CC[C@H](C)Nc1ncc2c(OC3CCOCC3)ncc([C@H]3CC[C@H](O)CC3)c2n1 [Compound 226] | ≤ 100 nM | +++ (a ratio of >100) | 100 to 1000 nM
CC[C@H](C)Nc1ncc2c(OC3CC(C)(C)N(C)C(C)(C)C3)ncc([C@H]3CC[C@H](O)CC3)c2n1 [Compound 227] | ≤ 100 nM | +++ (a ratio of >100) | ≤ 100 nM
CCC(CC)Nc1ncc2c(OC3CCNCC3)ncc([C@H]3CC[C@H](O)CC3)c2n1 [Compound 228] | ≤ 100 nM | ++ (a ratio of between 10 and 100) | 100 to 1000 nM
CC[C@H](C)Nc1ncc2c(O[C@H]3CC[C@H](O)CC3)ncc([C@H]3CC[C@H](O)CC3)c2n1 [Compound 229] | ≤ 100 nM | ++ (a ratio of between 10 and 100) | 100 to 1000 nM
CC[C@H](C)Nc1ncc2c(Cl)ncc([C@H]3CC[C@H](O)CC3)c2n1 [Compound 230] | ≤ 100 nM | +++ (a ratio of >100) | 100 to 1000 nM
CC[C@H](C)NC1=NC2C([C@H]3CC[C@H](O)CC3)=CN(C(C)C)C(=O)C2C=N1 (stereo partly drawn) [Compound 231] | ≤ 100 nM | +++ (a ratio of >100) | 100 to 1000 nM
O[C@H]1CC[C@H](c2cnc(OC3CCNCC3)c3cnc(N[C@@H]4CCCOC4)nc32)CC1 [Compound 232] | 100 to 1000 nM | + (a ratio of >2.0 and <10) | 100 to 1000 nM
CC[C@H](C)Nc1ncc2c(OC3CCN(S(C)(=O)=O)CC3)ncc([C@H]3CC[C@H](O)CC3)c2n1 [Compound 233] | ≤ 100 nM | +++ (a ratio of >100) | ≤ 100 nM
CC[C@H](C)Nc1ncc2c(=O)n(C3CCN(S(C)(=O)=O)CC3)cc([C@H]3CC[C@H](O)CC3)c2n1 [Compound 234] | ≤ 100 nM | +++ (a ratio of >100) | 100 to 1000 nM
CCOc1ncc([C@H]2CC[C@H](O)CC2)c2nc(N[C@@H](C)CC)ncc12 [Compound 235] | ≤ 100 nM | +++ (a ratio of >100) | ≤ 100 nM
CCOc1ncc(CC2CCNCC2)c2nc(N[C@@H](C)CC)ncc12 [Compound 236] | ≤ 100 nM | + (a ratio of >2.0 and <10) | 100 to 1000 nM
CC[C@H](C)Nc1ncc2c(OC3C[C@H]4CC[C@@H](C3)O4)ncc([C@H]3CC[C@H](O)CC3)c2n1 (stereo partly drawn) [Compound 237] | ≤ 100 nM | +++ (a ratio of >100) | 1000 to 10000 nM
CC[C@H](C)Nc1ncc2c(NC34CCC(O)(CC3)CC4)ncc([C@H]3CC[C@H](O)CC3)c2n1 [Compound 238] | ≤ 100 nM | ++ (a ratio of between 10 and 100) | 100 to 1000 nM
CC[C@H](C)Nc1ncc2c(OC3CCN(C)CC3)ncc([C@H]3CC[C@H](O)CC3)c2n1 [Compound 239] | ≤ 100 nM | +++ (a ratio of >100) | 100 to 1000 nM
CC[C@H](C)Nc1ncc2c(C3CCN(C)CC3)ncc([C@H]3CC[C@H](O)CC3)c2n1 [Compound 240] | ≤ 100 nM | +++ (a ratio of >100) | 1000 to 10000 nM

— patent US20200291018A1, “TAM KINASE INHIBITORS” (SYROS PHARMACEUTICALS, INC., priority 2017, published 2020)
